Measured values published in patent publication US10881110B2, “Herbicidal compositions comprising isoxazolo[5,4-b]pyridines” (BASF SE, priority 2014, dated 2021).
Where “and” joins values, the source holds several entries; their conditions need not be identical. Identical values can stand only once. Like-named read-outs stand apart in the source and are kept apart here.

Legend:
Assay in all cases: greenhouse post-emergence herbicidal test
[1] = test system: AMARE; format: in vivo, Amaranthus retroflexus
Experimental: The culture containers used were plastic pots containing medium loamy sand with approximately 4.6% of humus and 69.9% sand as substrate. The seeds of the test plants were sown separately for each species.
For the post-emergence treatment, the test plants were grown to a plant height of from 1 to 15 cm, depending on the plant habit, and only then treated with the active compounds which had been suspended or emulsified in water. To this end, the test plants were either sown directly, and grown in the same containers, or they were first grown separately as seedlings and transplanted into the test containers a few days prior to treatment.
Depending on the species, the plants were kept at 10-25° C. and 20-35° C., respectively.
The test period extended over 1 to 3 weeks. During this time, the plants were tended and their response to the individual treatments was evaluated 20 days after treatment except mentioned otherwise.
Evaluation was carried out using a scale from 0 to 100. 100 means no emergence of the plants, or complete destruction of at least the above-ground parts, and 0 means no damage or normal course of growth.
The respective stated components A and B, and, if appropriate, C, were formulated as a 10% by weight strength emulsion concentrate and, with addition of the amount of solvent system, introduced into the spray liquor used for applying the active compound. In the examples, the solvent used was water.
In the examples below, using the method of S. R. Colby (1967) “Calculating synergistic and antagonistic responses of herbicide combinations”, Weeds 15, p. 22 ff., the value E, which is expected if the activity of the individual active compounds is only additive, was calculated. E=X+Y−(X·Y/100)

[2] = test system: ERICA; format: in vivo, Conyza canadensis; set-up: key to herbicidal activity against ERICA found: rating on a scale from 0 to 100; conditions: post emergence
Outline: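 Seeds sown per species in loamy sand with roughly 4.6% humus; seedlings raised to 1 to 15 cm, then treated with water-borne spray of a 10% by weight emulsion concentrate. Response assessed on day 20 from 0 (normal growth) to 100 (destroyed).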

[3] = test system: GALAP; format: in vivo, Galium aparine; set-up: key to herbicidal activity against GALAP found: rating on a scale from 0 to 100; conditions: post emergence; for pest or weed control at 31.25 g/ha / pest or weed control at 62.5 g/ha / pest or weed control at 125 g/ha: Galium aparine, post-emergence, 480 h, read-out: herbicidal activity against GALAP found; for pest or weed control at 125 g/ha: 125 g/ha a.i.
Outline: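 Herbicidal activity scored on a 0 (no damage) to 100 (plants destroyed) scale, usually 20 days after water-based spraying of 1–15 cm plants grown in loamy sand at 10-25 °C or 20-35 °C depending on species. Components were applied from 10% emulsion concentrates; Colby's E=X+Y−(X·Y/100) gives the additive expectation.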

[4] = I.1 31.25 g/ha, B.95 1 g/ha a.i.
[5] = I.1 31.25 g/ha, B.95 2 g/ha a.i.
[6] = I.1 62.5 g/ha, B.103 7.5 g/ha a.i.

Structure (SMILES): O=C(O)c1cc(C2CC2)nc2onc(C3CC3)c12 [I.1]
- herbicidal activity against AMARE found ([1]; a.i. g/ha: I.1 15.6, B.190 62.5, 20 days after treatment): 30%
- herbicidal activity against AMARE found ([1]; a.i. g/ha: I.1 20.8, B.192 62.5, 20 days after treatment): 70%
- herbicidal activity against AMARE found ([1]; a.i. g/ha: I.1 31.25, B.190 62.5, 20 days after treatment): 35%
- herbicidal activity against AMARE found ([1]; a.i. g/ha: I.1 31.25, B.76 225, 20 days after treatment): 90%
- herbicidal activity against AMARE found ([1]; a.i. g/ha: I.1 31.25, bentazon Na 125, 20 days after treatment): 35%
- pest or weed control at 31.25 g/ha ([2]; Erigeron canadensis, post-emergence, 480 h, I.1 alone 31.25 g/ha a.i., read-out: herbicidal activity against ERICA found): 70%
- pest or weed control at 62.5 g/ha ([2]; Erigeron canadensis, post-emergence, 480 h, I.1 alone 62.5 g/ha a.i., read-out: herbicidal activity against ERICA found): 75%
- pest or weed control at 125 g/ha ([2]; Erigeron canadensis, post-emergence, 480 h, I.1 alone 125 g/ha a.i., read-out: herbicidal activity against ERICA found): 75%
- pest or weed control at 31.25 g/ha ([2]; Erigeron canadensis, post-emergence, 480 h, I.1 31.25 g/ha a.i., read-out: herbicidal activity against ERICA found): 50%
- pest or weed control at 62.5 g/ha ([2]; Erigeron canadensis, post-emergence, 480 h, I.1 62.5 g/ha a.i., read-out: herbicidal activity against ERICA found): 70%
- pest or weed control at 125 g/ha ([2]; Erigeron canadensis, post-emergence, 480 h, I.1 125 g/ha a.i., read-out: herbicidal activity against ERICA found): 65%
- pest or weed control at 15.62 g/ha ([2]; Erigeron canadensis, post-emergence, 480 h, single active, 15.62 g/ha a.i., read-out: herbicidal activity against ERICA found): 0%
- herbicidal activity against ERICA found ([2]; 6 days after treatment, g/ha a.i.: I.1 125, naptalam 50, mixture 125+50): 70
- herbicidal activity against ERICA found ([2]; I.1 15.62 g/ha, B.95 1 g/ha a.i.): 0
- herbicidal activity against ERICA found ([2]; I.1 15.62 g/ha, B.95 2 g/ha a.i.): 0
- herbicidal activity against ERICA found ([2]; I.1 31.25 g/ha, B.103 15 g/ha a.i.): 0
- herbicidal activity against ERICA found [2, 4]: 0
- herbicidal activity against ERICA found [2, 5]: 0
- herbicidal activity against ERICA found [2, 6]: 0
- herbicidal activity against ERICA found ([2]; I.1 62.5 g/ha, B.103 15 g/ha a.i.): 0
- herbicidal activity against ERICA found ([2]; I.1 62.5 g/ha, B.57 2 g/ha a.i.): 10
- herbicidal activity against ERICA found ([2]; I.1 62.5 g/ha, B.89 25 g/ha a.i.): 10
- herbicidal activity against ERICA found ([2]; I.1 62.5 g/ha, B.95 1 g/ha a.i.): 10
- herbicidal activity against ERICA found ([2]; I.1 62.5 g/ha, B.95 2 g/ha a.i.): 10
- herbicidal activity against ERICA found ([2]; a.i. g/ha: I.1 31.25, B.92 0.5, 20 days after treatment): 25%
- herbicidal activity against ERICA found ([2]; a.i. g/ha: I.1 62.5, B.191 225, 20 days after treatment): 90%
- herbicidal activity against ERICA found ([2]; a.i. g/ha: I.1 62.5, B.69 25, 20 days after treatment): 90%
- herbicidal activity against ERICA found ([2]; a.i. g/ha: I.1 62.5, B.80 250, 20 days after treatment): 65%
- herbicidal activity against ERICA found ([2]; application rate a.i.: I.1 20.8 g/ha, B.107 (topramezone) 6 g/ha, alone or as mixture (composition 1.107)): 65
- herbicidal activity against ERICA found ([2]; application rate a.i.: I.1 31.25 g/ha, B.100 (isoxaflutole) 12.5 g/ha, alone or as mixture (composition 1.100)): 25
- herbicidal activity against ERICA found ([2]; application rate a.i.: I.1 31.25 g/ha, B.84 (paraquat-dichloride) 17.5 g/ha, alone or as mixture (composition 1.84)): 55
- herbicidal activity against ERICA found ([2]; application rate a.i.: I.1 62.5 g/ha, B.100 (isoxaflutole) 12.5 g/ha, alone or as mixture (composition 1.100)): 75
- herbicidal activity against ERICA found ([2]; application rate a.i.: I.1 62.5 g/ha, B.107 (topramezone) 6 g/ha, alone or as mixture (composition 1.107)): 65
- herbicidal activity against ERICA found ([2]; applied alone at 62.5 g/ha a.i.): 75
- herbicidal activity against ERICA found ([2]; applied alone at 125 g/ha a.i.): 75 and 65
- herbicidal activity against ERICA found ([2]; g/ha a.i.: I.1 31.25, B.52 2.5, mixture 31.25+2.5): 0
- herbicidal activity against ERICA found ([2]; g/ha a.i.: I.1 31.25, B.52 5, mixture 31.25+5): 0
- herbicidal activity against ERICA found ([2]; g/ha a.i.: I.1 62.5, B.52 2.5, mixture 62.5+2.5): 35
- herbicidal activity against ERICA found ([2]; g/ha a.i.: I.1 62.5, B.52 5, mixture 62.5+5): 35
- pest or weed control at 31.25 g/ha ([3]; I.1 alone 31.25 g/ha a.i.): 50%
- pest or weed control at 62.5 g/ha ([3]; I.1 alone 62.5 g/ha a.i.): 80%
- pest or weed control at 31.25 g/ha ([3]; 31.25 g/ha a.i.): 50%
- pest or weed control at 62.5 g/ha ([3]; 62.5 g/ha a.i.): 50%
- pest or weed control at 125 g/ha [3]: 80%
- pest or weed control at 31.25 g/ha ([3]; I.1 31.25 g/ha a.i.): 60%
- pest or weed control at 62.5 g/ha ([3]; I.1 62.5 g/ha a.i.): 60%
- pest or weed control at 62.5 g/ha ([3]; single active, 62.5 g/ha a.i.): 65%
- pest or weed control at 125 g/ha ([3]; single active): 65%
- herbicidal activity against GALAP found ([3]; 6 days after treatment, g/ha a.i.: I.1 62.5, B.96 70, mixture 62.5+70): 65
- herbicidal activity against GALAP found ([3]; 6 days after treatment, g/ha a.i.: I.1 62.5, B.96 140, mixture 62.5+140): 65
- herbicidal activity against GALAP found [3, 4]: 50
- herbicidal activity against GALAP found [3, 5]: 50
- herbicidal activity against GALAP found [3, 6]: 50
